Experiment [1] addresses T1, human GCGR (Homo sapiens, UniProt P47871).
T1 construct: expressed in transfected cells; growth medium holds Blasticidin and Hygromycin
In words: cAMP activity assay at the Glucagon receptor (GCGR). Format: cell-based. In short, it runs like this:
(§1)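 Peptides serially diluted from DMSO (10 points) and added to frozen-stock cells bearing human GLP1R (10,000 cells/well) or GCGR (30,000 cells/well), 1 h at RT, dark. EC50 by four-parameter logistic fit of HitHunter cAMPXS luminescence, read following overnight RT incubation.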

The target in experiment [2] is T2, human GLP1R (Homo sapiens, UniProt P43220).
T2 construct: expressed in transfected cells; growth medium holds Blasticidin and Hygromycin
In words: cAMP activity assay at the GLP-1 receptor (GLP1R). Format: cell-based. Particulars: summary statement: EC50 at each of the glucagon and GLP-1 receptors; read-out: EC50 at the GLP-1 receptor. In short, it runs like this: as §1

The structures appear in SMILES notation. Numbered stars: 1 amine (or outer) side, 2 acyl side, 3 side chain; on linkers, the order of the positions; unused ones are H or OH. Square brackets hold non-standard residues; d marks the D form. Side chains are listed from the residue outwards. Peptide text beside a SMILES is read from it. * marks the point of attachment. C16 diacid = O=C(O)CCCCCCCCCCCCCCC(=O)*; γGlu = O=C(O)[C@H](CCC(=O)[*:2])N[*:1]; Met(O2) = CS(=O)(=O)CC[C@H](N)C(=O)O; AEEA = NCCOCCOCC(=O)O; Aib = CC(C)(N)C(=O)O

T1 sequence (P47871 26-477): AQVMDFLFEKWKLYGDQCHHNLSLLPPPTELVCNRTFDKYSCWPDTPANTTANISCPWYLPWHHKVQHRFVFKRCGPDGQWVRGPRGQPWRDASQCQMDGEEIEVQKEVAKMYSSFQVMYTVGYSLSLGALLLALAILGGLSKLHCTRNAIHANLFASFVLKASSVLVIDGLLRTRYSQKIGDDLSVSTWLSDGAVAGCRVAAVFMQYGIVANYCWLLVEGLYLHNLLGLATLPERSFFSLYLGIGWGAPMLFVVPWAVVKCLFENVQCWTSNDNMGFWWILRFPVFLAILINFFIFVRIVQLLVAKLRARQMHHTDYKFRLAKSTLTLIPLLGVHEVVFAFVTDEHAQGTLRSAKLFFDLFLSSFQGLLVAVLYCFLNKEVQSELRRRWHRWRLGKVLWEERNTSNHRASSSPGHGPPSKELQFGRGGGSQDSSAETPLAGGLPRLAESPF
T2 sequence (P43220 24-463): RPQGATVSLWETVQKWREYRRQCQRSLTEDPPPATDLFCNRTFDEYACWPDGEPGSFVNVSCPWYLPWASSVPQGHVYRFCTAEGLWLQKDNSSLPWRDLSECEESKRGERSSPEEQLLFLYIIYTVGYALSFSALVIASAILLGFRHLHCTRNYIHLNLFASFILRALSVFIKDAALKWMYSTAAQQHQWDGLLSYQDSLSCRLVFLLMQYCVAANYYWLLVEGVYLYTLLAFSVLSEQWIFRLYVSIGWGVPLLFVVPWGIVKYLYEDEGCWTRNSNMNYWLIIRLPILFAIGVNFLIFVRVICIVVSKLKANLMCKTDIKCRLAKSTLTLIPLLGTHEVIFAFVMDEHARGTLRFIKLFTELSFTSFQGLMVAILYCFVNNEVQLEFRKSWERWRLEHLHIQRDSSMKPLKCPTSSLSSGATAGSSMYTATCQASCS

A word on the EC50: it is the concentration that produces a half-maximal response. As for `CC(C)C[C@H](NC(=O)[C@H](Cc1c[nH]c2ccccc12)NC(=O)[C@H](CCCCNC(=O)COCCOCCNC(=O)COCCOCCNC(=O)CC[C@H](NC(=O)CCCCCCCCCCCCCCC(=O)O)C(=O)O)NC(=O)[C@@H](NC(=O)[C@H](Cc1ccccc1)NC(=O)[C@H](CC(=O)O)NC(=O)[C@H](CCC(N)=O)NC(=O)[C@H](C)NC(=O)[C@H](C)NC(=O)[C@H](CCCNC(=N)N)NC(=O)C(C)(C)NC(=O)[C@H](CC(=O)O)NC(=O)[C@H](CC(C)C)NC(=O)[C@H](Cc1ccc(O)cc1)NC(=O)[C@H](CCCCN)NC(=O)[C@H](CO)NC(=O)[C@H](Cc1ccc(O)cc1)NC(=O)[C@H](CC(=O)O)NC(=O)[C@H](CO)NC(=O)[C@@H](NC(=O)[C@H](Cc1ccccc1)NC(=O)[C@@H](NC(=O)CNC(=O)[C@H](CCC(N)=O)NC(=O)C(C)(C)NC(=O)[C@@H](N)Cc1c[nH]cn1)[C@@H](C)O)[C@@H](C)O)C(C)C)C(=O)N[C@@H](CCS(C)(=O)=O)C(=O)N[C@@H](CCC(=O)N[C@H](C(N)=O)[C@@H](C)O)C(=O)O` [TP828] (H-H[Aib]QGTFTSDYSKYLD[Aib]RAAQDFVK([AEEA-AEEA-γGlu-C16 diacid])WL[Met(O2)][γGlu]T-NH2), the “hGCGR/hGLP1R (hTone)” value in experiment [1] (ratio of GCGR EC50 to GLP1R EC50) came to 0.4. Moreover, the EC50 is less than 5 nM in experiment [1] (summary statement: EC50 at each of the glucagon and GLP-1 receptors, read-out: EC50 at the glucagon receptor); less than 5 nM in experiment [2].

The record behind these values is patent publication US11566057B2, “Long-acting co-agonists of the glucagon and GLP-1 receptors” (Merck Sharp & Dohme Corp., priority 2017, dated 2023).
